The values below come from the supplement of paper PMC10307832.

Common to all, as to experiment: relative viability (nuclei count vs DMSO), 5 days (fraction); higher = more cells survive
Compound in experiment [1]: O=C(/C=C/c1ccccc1)NC(NC(=S)Nc1cccc2cccnc12)C(Cl)(Cl)Cl [Salubrinal] + Cc1nc(NC(=O)N2CCC[C@H]2C(N)=O)sc1-c1ccnc(C(C)(C)C(F)(F)F)c1 [Alpelisib] (partner 2 µM)
The method, boiled down: (§1)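 A single step with final 0.05% Triton X-100, 1% formaldehyde and 1 ug/ml Hoechst fixed the cells and stained nuclei 5 days after treatment. Lung cancer cell lines in 1536-well plates had been treated by pin tool the day after seeding with one drug alone or a fixed anchor-drug dose plus five library-drug doses (not always all listed) in √10 steps, and nuclei were counted on 4× images. Relative viability is the ratio of nuclei in treated wells to nuclei in vehicle wells, taken as the median of duplicate plates.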

Compound in experiment [2]: Cc1ccc2nc(NCCN)c3ncc(C)n3c2c1 + CC(C)C[C@H](NC(=O)[C@H](Cc1ccccc1)NC(=O)c1cnccn1)B(O)O [Bortezomib] (partner 0.002 µM)
In short, it runs like this:
as §1

Compound in experiment [3]: O=C(/C=C/c1ccccc1)NC(NC(=S)Nc1cccc2cccnc12)C(Cl)(Cl)Cl [Salubrinal] + COc1cccc2cc(-c3nc([C@H]4CC[C@H](C(=O)O)CC4)n4ncnc(N)c34)[nH]c12 [OSI-027] (partner 0.5 µM)
In short, it runs like this:
as §1

Compound in experiment [4]: Cc1ccc2nc(NCCN)c3ncc(C)n3c2c1 + CS(=O)(=O)CCNCc1ccc(-c2ccc3ncnc(Nc4ccc(OCc5cccc(F)c5)c(Cl)c4)c3c2)o1 [Lapatinib] (partner 2 µM)
The method, boiled down: as §1

For UMC-11, the relative viability in experiment [1] (first compound 0.08 µM) came to 1.29; in experiment [1] (first compound 0.253 µM), 0.782; in experiment [1] (first compound 0.8 µM), 1.11; in experiment [1] (first compound 2.53 µM), 0.963; in experiment [1] (first compound 8 µM) it was 0.89; in experiment [2] (first compound 0.04 µM) it was 0.818. Also, the relative viability in experiment [2] (first compound 0.1265 µM) was determined as 0.809; in experiment [2] (first compound 0.4 µM) it was 0.667; in experiment [2] (first compound 1.265 µM), 0.795; in experiment [2] (first compound 4 µM), 0.671; in experiment [3] (first compound 0.08 µM), 0.498; in experiment [3] (first compound 0.253 µM), 0.399. In addition, the relative viability amounted to 0.548 in experiment [3] (first compound 0.8 µM); 0.46 in experiment [3] (first compound 2.53 µM); 0.455 in experiment [3] (first compound 8 µM); 1.03 in experiment [4] (first compound 0.04 µM); 1.04 in experiment [4] (first compound 0.1265 µM); 0.877 in experiment [4] (first compound 0.4 µM). The figures for the relative viability in experiment [4] (first compound 1.265 µM) and in experiment [4] (first compound 4 µM) were 0.898 and 0.91, respectively.
